This note sets out measurements from ChEMBL document CHEMBL1151534, “UK-73,093: A non-peptide neurotensin receptor antagonist” (Bioorg Med Chem Lett, 1992).

The source made the active and inactive calls. No cut-off for these calls is given here.

Assay [1] has as its system N1E-115. The experiment in a line: Evaluated for the cyclic [3H]GMP formation in murine N1E-115 neuroblastoma cells in absence of neurotensin at conc. of 32 uM; NS - No significant activity. The conditions noted are these: Mus musculus. Type of assay: functional, cell-based.
Assay [2] relates to N1E-115. Description: Evaluated for its antagonistic activity against the NT-stimulated cyclic [3H]GMP formation in murine N1E-115 neuroblastoma cells. Type of assay: functional, cell-based, Mus musculus.
In assay [3] the target is Neurotensin receptor type 1 (Rattus norvegicus, UniProt P20789). Description: Inhibitory concentration required for the displacement of [3H]NT from neurotensin receptor in rat.
Sequence of Neurotensin receptor type 1 (Rattus norvegicus, UniProt P20789) (P20789 whole entry): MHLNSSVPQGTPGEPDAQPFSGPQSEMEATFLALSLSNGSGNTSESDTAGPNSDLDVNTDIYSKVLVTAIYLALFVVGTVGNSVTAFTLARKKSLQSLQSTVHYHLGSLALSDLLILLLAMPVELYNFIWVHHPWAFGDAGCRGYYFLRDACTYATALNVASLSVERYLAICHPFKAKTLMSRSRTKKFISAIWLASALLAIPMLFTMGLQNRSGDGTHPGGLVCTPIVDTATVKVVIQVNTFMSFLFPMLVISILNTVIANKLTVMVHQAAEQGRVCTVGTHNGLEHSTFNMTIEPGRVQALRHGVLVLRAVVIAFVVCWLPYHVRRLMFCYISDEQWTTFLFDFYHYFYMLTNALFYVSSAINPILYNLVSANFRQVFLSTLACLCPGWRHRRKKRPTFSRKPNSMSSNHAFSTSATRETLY
Assay [4] deals with Neurotensin receptor (Homo sapiens) (UniProt O95665+P30989). The experiment in a line: Inhibitory concentration required for the displacement of [3H]-NT from neurotensin receptor on human frontal cortex at conc. of 100 uM; NA - No activity. Type of assay: tissue-based. For orientation: Loss of bound radioactivity is the signal in a displacement assay; it reports binding, not function.
Sequence of Neurotensin receptor (Homo sapiens) (O95665 whole entry, looked up): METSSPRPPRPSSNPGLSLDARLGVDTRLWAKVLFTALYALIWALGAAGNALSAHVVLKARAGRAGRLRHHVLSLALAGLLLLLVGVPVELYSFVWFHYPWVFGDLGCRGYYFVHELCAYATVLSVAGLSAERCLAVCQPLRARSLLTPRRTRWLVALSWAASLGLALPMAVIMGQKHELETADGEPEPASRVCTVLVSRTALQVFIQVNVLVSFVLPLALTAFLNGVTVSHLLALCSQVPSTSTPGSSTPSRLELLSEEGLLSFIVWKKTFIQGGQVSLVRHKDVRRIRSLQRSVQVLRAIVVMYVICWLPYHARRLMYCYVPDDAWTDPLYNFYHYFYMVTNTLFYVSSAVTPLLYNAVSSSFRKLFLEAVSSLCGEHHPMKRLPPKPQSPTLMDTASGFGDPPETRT
Sequence of Neurotensin receptor (Homo sapiens) (P30989 whole entry, looked up): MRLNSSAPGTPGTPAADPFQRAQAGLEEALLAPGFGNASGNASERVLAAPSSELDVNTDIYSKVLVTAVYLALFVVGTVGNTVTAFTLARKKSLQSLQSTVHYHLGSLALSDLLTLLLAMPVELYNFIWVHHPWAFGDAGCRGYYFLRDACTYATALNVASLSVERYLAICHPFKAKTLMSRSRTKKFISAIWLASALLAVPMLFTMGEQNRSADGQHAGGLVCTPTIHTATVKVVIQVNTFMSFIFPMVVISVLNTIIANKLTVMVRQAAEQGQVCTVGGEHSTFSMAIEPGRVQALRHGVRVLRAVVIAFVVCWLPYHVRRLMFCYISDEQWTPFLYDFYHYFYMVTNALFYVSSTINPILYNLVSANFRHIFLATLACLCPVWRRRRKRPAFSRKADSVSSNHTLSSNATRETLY

Assay [5] has as its target Neurotensin receptor type 1 (Mus musculus, UniProt O88319). The experiment in a line: Inhibitory concentration required for the displacement of [3H]NT from neurotensin receptor in mouse; value ranges from 4-6 uM.
Assay [6] deals with Rattus norvegicus. Description: Compound was tested for the inhibition of NT-induced hyperlocomotion at a dose of 80 mg/kg (ip); SI - Significant inhibition. Type of assay: functional, organism-based. The arrangement: dose 80 mg/kg.
For assay [7], the system named is Rattus norvegicus. Description: Compound was tested for the inhibition of NT-induced hyperlocomotion at a dose of 120 mg/kg (ip); SI - Significant inhibition. The arrangement: dose 120 mg/kg. Type of assay: functional, organism-based.
Assay [8] relates to Rattus norvegicus. The experiment in a line: Compound was tested for the inhibition of NT-induced hyperlocomotion at a dose of 40 mg/kg (ip); NS - No significant inhibition. Type of assay: functional, organism-based. More on the design: dose 40 mg/kg.
Assay [9] in a line: Compound was evaluated for its ability to displace [3H]NT from the neurotensin receptor of bovine brain.

The term Ki denotes the dissociation constant of the complex between target and ligand, obtained from inhibition or displacement. Read a high Ki as weaker binding. As a reminder, the IC50 is the concentration that gives 50% inhibition. A low value points to greater potency.

Sequence of Neurotensin receptor type 1 (Mus musculus, UniProt O88319) (O88319 whole entry): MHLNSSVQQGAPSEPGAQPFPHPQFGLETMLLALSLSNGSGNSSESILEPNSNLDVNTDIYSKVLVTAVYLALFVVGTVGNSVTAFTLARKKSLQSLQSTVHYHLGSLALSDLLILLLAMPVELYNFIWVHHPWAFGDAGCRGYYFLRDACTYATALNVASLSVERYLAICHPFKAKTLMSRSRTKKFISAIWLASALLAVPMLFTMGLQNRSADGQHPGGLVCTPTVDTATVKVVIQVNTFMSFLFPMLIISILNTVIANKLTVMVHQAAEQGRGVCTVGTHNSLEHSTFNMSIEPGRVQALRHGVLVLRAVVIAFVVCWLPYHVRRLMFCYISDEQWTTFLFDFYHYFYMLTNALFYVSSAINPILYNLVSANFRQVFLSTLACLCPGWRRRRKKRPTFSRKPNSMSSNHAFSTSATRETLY

For `Cc1ccc(S(=O)(=O)NCCNC2(c3ccccc3)OC(=O)c3ccccc32)cc1` (centres undefined), in the assay on N1E-115 [1], the outcome was inactive. In the assay on N1E-115 [2], the Ki turned out to be 4.4 µM. Also, the IC50 worked out at 49 µM in assay [3], 6 µM in assay [5] and 5.5 µM in assay [9]. The inhibition entry (in assay [4]; in the assay with Rattus norvegicus [8]) was “inactive” each time. The inhibition entry in the assay with Rattus norvegicus [6] and with Rattus norvegicus [7] was “Active” in each case.
